Assays:
hCD8^+ T cells [1] = test: hCD8+ T cell differentiation into effector T cells: GZMB release, ELISA; format: cell-based, human; details: for Granzyme B (% Control): 72 hrs, normalized per number of cells
Experimental: (§1) Differentiation of T Cells. The ability of T cells to differentiate from a naïve to an effector state was assessed by measuring the levels of IFNγ or GZMB synthesis following activation of the cells using a cocktail of anti-CD2/anti-CD3/anti-CD28 antibodies. Expression of IFNγ, GZMB, and other effector cytokines was measured by determining their concentration in the conditioned media 24-72 hrs after initiation of activation or by estimating the % cells expressing these cytokines using fluorescence-activated cell sorting (FACS).
(§2) Augmentation of hCD8^+ T Cell Differentiation into Effector T Cells. Naïve CD8+ T cells were isolated from human buffy coats using magnetic separation and the appropriate kit from Miltenyi Biotec. Cells were then activated using a cocktail of anti-CD2/anti-CD3/anti-CD28 antibodies. Differentiation of the cells into effector T cells was assessed by determining the levels of IFNγ and GZMB released into the media at 24 and 72 hrs, respectively using appropriate ELISA kits. Cytokine concentrations were normalized per number of cells present and expressed as % Untreated Control.

H3K4me3 = test: Epigenetic modification: H3K4me3 Western immunoblotting in TCR-activated hCD8+ T cells; format: cell-based, human; details: 10 μM, 72 hrs
Experimental: Epigenetic Modifications. The ability of a therapeutic agent to alter acetylation and/or methylation of histones was assessed by Western Immunoblotting. Briefly, immune and other type cells were collected after being exposed to the therapeutic agent or vehicle control for a specific period of time, typically 24-72 hrs. They were then lysed and cell lysates from control and treated cells contained equal amounts of proteins were subjected to SDS-PAGE electrophoresis. The presence of acetylated and methylated histone sites was determined by Western Immunoblotting using appropriate antibodies.
Epigenetic Modification. TCR-activated hCD8^+ T cells were exposed to 0 or 10 μM Compound (6) for 72 hrs prior to lysing. Equal amounts of cell lysates were subjected to gel electrophoresis and Western immunoblotting against trimethylated lysine site 4 of histone 3 (H3K4me3). The experiment also included cell lysates from naïve cells. Image J was used for protein quantification. Western immunoblotting against histone 3 (H3) was also performed for normalization purposes. […] Exposure of the hCD8^+ T cells to 10 μM Compound (6) led to the depletion of trimethylated H3K4. H3K4me3 is commonly associated with activation of transcription.

[2] = system: CT26 mouse colorectal tumors; test: Survival and tumor growth of CT26 tumor-bearing mice; format: in vivo, C57BL/6 mice
Experimental: In Vivo Anti-Tumor Effect. The anticancer properties of the therapeutic agent were evaluated in vivo by determining the ability of the agent to suppress tumor growth and/or increase survival of tumor-bearing animals. In a typical experiment, 0.1-1×10^6 tumor cells, suspended in PBS containing 20% Matrigel, were injected subcutaneously in the right flank of each mouse. When the tumors became palpable, the animals were randomized into different groups and treatment began. In vivo tests routinely included a vehicle control group and different doses and/or routes of administration of the therapeutic agent. Tumor growth was assessed using calipers and the following formula:
Tumor Volume=length×width×width×½
The Kaplan-Meier analysis was used to estimate the survival probability of the tumor-bearing animals.
C57BL/6 mice were injected subcutaneously in the right flank with 1×10^5 CT26 mouse colorectal tumor cells, suspended in PBS containing 20% Matrigel. The tumors were allowed to grow to −100 mm^3. The mice were randomized into two groups (n=6 animals/group): one group received vehicle control and the other group was treated with i.p. injections of 0.2 mg/kg Compound (6) twice a week (Tuesday-Thursday). The experiment continued for 27 days, at which point the mortality rate of control animals was 80%. […] The experiment was repeated (FIG. 6B). In FIG. 6B, treated animals received oral administrations of 3 mg/kg Compound (6) twice a day.

[3] = system: C6-IRG1-9 rat glioma cells; test: C6-IRG1-9 rat glioma cell proliferation, CyQuant; format: cell-based; details: various concentrations, 48 hrs
Experimental: Tumor Cell Proliferation Assay. This assay was used to assess the anti-tumor properties of a therapeutic agent in vitro. In a typical proliferation assay, cells were cultured to near confluency in the appropriate media. Subsequently, the cells were trypsinized and plated onto 96-well plates at 2,000 or 5,000 cell per well. The cells were cultured for 48 to 96 hours in the presence or absence of the therapeutic agent. Cell proliferation was then determined using spectrophotometry (MTT assay, BrdU assay) or fluorimetry (Cyquant assay).
Inhibition of C6-IRG1-9 Rat Glioma cell proliferation. C6-IRG1-9 cells are rat C6 glioma cells that have been transfected to overexpress IRG1. Overexpression of IRG1 is maintained by culturing the cells in DMEM media containing 0.55 μg/mL puromycin. For the proliferation assays, the cells were plated onto a 96-well plate at a density of 2,000 cells/well. The cells were allowed to adhere overnight; they were subsequently treated with various concentrations of compounds of Formula (2) for 48 hrs. At the end of the incubation period, the number of cells is assessed using the CyQuant Cell Proliferation kit (Thermo Fisher) according to the manufacturer's instructions. The results, shown in FIG. 3, indicate that compounds of Formula (2) are able to reduce or abrogate growth of C6-IRG1-9 cells. In FIG. 3, cell proliferation is expressed as % Untreated Control, defined as: […]
where t is the number of cells present in a treated well at the end of the incubation period, c is the number of cells present in an untreated well at the end of the incubation period, and s is the initial number of cells in the wells prior to initiation of treatment.

hCD8^+ T cells [4] = test: hCD8+ T cell differentiation into effector T cells: IFNγ release, ELISA; format: cell-based, human; details: for IFNγ (% Control): 24 hrs, normalized per number of cells
Experimental: as §1, §2

TNFα = test: In vitro inflammation assay: TNFα secretion from LPS-stimulated hMDMs, ELISA; format: cell-based, human; details: concentrations ≥500 μM, 1 μg/mL LPS, 6 h
Experimental: In Vitro Inflammation Assay. In vitro inflammation was assessed by measuring the concentration of TNFα in the conditioned media of macrophages stimulated with 0.1-1 μg/mL LPS in the presence or absence of the compound of interest after 4-6 hrs.
Inhibition of TNFα secretion. hMDMs were pretreated with various concentrations of Compound (6) for 15 min and then stimulated with 1 μg/mL LPS. Conditioned media were collected 6 h later and TNFα concentrations were determined by ELISA.

[5] = 3 mg/kg oral twice a day, end of experiment

SMILES: O=C(O)/C(=C\c1ccc(F)cc1)C(Cc1ccccc1)C(=O)O (stereo not drawn) [Compound (6), 2-benzyl-3-[(4-flurophenyl)methylidene]butanedioic acid]
- Granzyme B (% Control) (hCD8^+ T cells [1]; 0.1 nM): 117 % Control
- Granzyme B (% Control) (hCD8^+ T cells [1]; 1 nM): 165 % Control
- Granzyme B (% Control) (hCD8^+ T cells [1]; 10 nM): 504 % Control
- Granzyme B (% Control) (hCD8^+ T cells [1]; 100 nM): 276 % Control
- Granzyme B (% Control) (hCD8^+ T cells [1]; 10 μM): 360 % Control
- production of GZMB (hCD8^+ T cells [1]; low concentrations): increase production
- trimethylated H3K4 (H3K4me3/H3) (H3K4me3): depletion
- survival (Kaplan-Meier) ([2]; 0.2 mg/kg i.p. twice a week, 27 days, vs vehicle control): survival advantage
- animals with complete tumor regression [2, 5]: 1/6
- mice with slower tumor growth [2, 5]: 5/6
- survival (Kaplan-Meier) ([2]; 3 mg/kg orally twice a day): increased survival
- proliferation of C6-IRG1-9 rat glioma cells [3]: inhibition of proliferation
- IFNγ (% Control) (hCD8^+ T cells [4]; 1 nM): 129 % Control
- IFNγ (% Control) (hCD8^+ T cells [4]; 10 nM): 510 % Control
- IFNγ (% Control) (hCD8^+ T cells [4]; 100 nM): 274 % Control
- IFNγ (% Control) (hCD8^+ T cells [4]; 10 μM): 370 % Control
- IFNγ (% Control) (hCD8^+ T cells [4]; 100 μM): 198 % Control
- IFNγ (% Control) (hCD8^+ T cells [4]; 500 μM): 47 % Control
- IFNγ synthesis following TCR activation (hCD8^+ T cells [4]; high (>100 μM) concentrations): decrease
- synthesis of INFγ following TCR activation (hCD8^+ T cells [4]; low concentrations, 0.1 nM to 100 μM): increased synthesis
- secretion of TNFα (TNFα): reduced secretion

Source: patent US20210261495A1, “COMPOSITIONS AND METHODS OF USING ITACONIC ACID DERIVATIVES” (ERGON PHARMACEUTICALS, LLC, priority 2018, published 2021)
